Test [1] relates to PDK1 (pyruvate dehydrogenase kinase1). Put plainly: HIF-1 target gene PDK1 expression in 293T cells by real-time PCR. The class given is cell-based. The conditions noted are these: Homo sapiens, HEK-293T, 1 h pretreatment, 8 h hypoxia, read-out: IC50, suppression of endogenous PDK1 gene expression. Here is the method:
Human 293T cells were cultivated either under normoxic conditions or under hypoxic conditions (1% oxygen) for 4 and 8 hs respectively. Cells were harvested, followed by the isolation of RNA and the generation of cDNAs from Oligo (dT)20 primers using a Reverse Transcriptase kit. Then gene expression was measured by real-time PCR for the following two selected HIF-1α target genes: LDH-A (lactate dehydrogenase isoform A), and PDK1 (pyruvate dehydrogenase kinase1). Real-time PCR was performed with cDNA using specific primers and the SYBR Green I detection chemistry system (Applied Biosystems), utilizing an ABI Prism 7300 system. Actin was also measured as an internal control. The relative abundance of the different genes was calculated by the comparative CT method. In order to facilitate comparison, gene expression under normoxic conditions was arbitrarily set to 1 for each of the three genes. Two independent experiments confirmed PDK1 as the gene which was induced most prominently compared to LDH.
To investigate the capability of the compounds to inhibit PDK1, 293T cells were pretreated for 1 h with 3 different concentrations of the respective inhibitors (IMD-019064; IMD-026259; and IMD-026260). Subsequently, cells were incubated under normoxic/hypoxic conditions for further 8 h and the expression of PDK1 was quantified by real-time PCR as described above.
Background: In qPCR the cycle at which signal appears reflects the starting amount.

Test [2] concerns NHDF (fibroblast). Put plainly: NHDF (fibroblast) spheroid sprouting/scattering in 3D collagen gel. The class given is cell-based. The conditions noted are these: Homo sapiens, 24 h, 3D collagen gel, read-out: IC50, NHDF fibroblast spheroid sprouting/scattering. How it is done: Prior application the stock solution [100 mM] of IMD-019064 was diluted 1:10 in DMSO and serially diluted in half logarithmic steps covering the concentration range from 10 mM to 1 μM using 100% DMSO. The final assay concentration ranged from 100 μM to 10 nM with a final DMSO concentration in the assay of 1%. The experiments were pursued in modification of the originally published protocol (Korff and Augustin: J Cell Sci 112: 3249-58, 1999). In brief, spheroids were prepared as described by Korff and Augustin: J Cell Biol 143: 1341-52, 1998) by pipetting 500 endothelial cells (EC) in a hanging drop on plastic dishes to allow overnight spheroid aggregation. […]
Plates were incubated at 37° C. for 24 hours and fixed by adding 4% paraformaldehyde. The cumulative sprout length of 10 randomly selected spheroids per data point was analyzed and the relative inhibition by the test compound determined. […] Sprouting intensity of EC and fibroblast spheroids was quantitated by an image analysis system using an inverted microscope and the digital imaging software Analysis 3.2 (Soft imaging system, Munster, Germany). […] The cumulative sprout length of 10 randomly selected spheroids per data point was analyzed according to the procedure used for the HUVEC experiment. […]

Test [3] has as its system HUVEC. Put plainly: Spheroid-based angiogenesis assay, VEGF-A induced HUVEC sprouting. The class given is cell-based, human. Here is the method:
As described in Example 4 HUVEC spheroids were generated, cultivated and embedded in a 3D collagen gel and stimulated with Vascular Endothelial Growth Factor alpha [VEGF-A; 25 ng/ml] instead of deferoxamine. Cell spheroids were treated for 24 h with different concentrations of IMD-026259; IMD-026260; Sutent® (Sunitinib) and Sorafenib (Nexavar®) (in Molar [M], as indicated in Table 4; see also FIG. 14A).
The cumulative sprout length of 10 randomly selected spheroids per data point was analyzed and the relative inhibition by the test compound determined. Fitting of IC50 curves and calculation of IC50 values was performed with GraphPad Prism® 5.01 (trademarked by GraphPad Software Inc.). […] Results from the examples described above are summarized in FIG. 14b IC50 values are given in nM for in vitro angiogenesis (HUVEC sprouting) studies after hypoxic or VEGF induction.

For test [4], the system named is human vasculature (CD34 positive vessels) from transplanted HUVECs. Put plainly: Spheroid-based in vivo angiogenesis assay in SCID mice. The conditions noted are these: 0.3 mg/ml p.o. every 3rd day, pvalue=0.0001. The text has this: Human endothelial cells (ECs; HUVECs) are applied subcutaneously in (n=10) SCID mice embedded in extracellular matrix components in the presence of smooth muscle cells (SMCs) and fibroblasts (NHDFs). The transplanted human ECs (EC spheroids in combination with ECs in suspension) form a complex and perfused three dimensional network of capillaries of human origin that is anastomosed (connected with) with the mouse vasculature and host (mouse) pericyte-covered. The quality of the newly formed vasculature is monitored by micro vessel density counting. Aim of the study is to investigate the anti-angiogenic potential of the test items in the spheroid-based in vivo angiogenesis assay. […]
In the standard assay (with VEGF-A and FGF-2 stimulation and only ECs) the first perfused vessels are usually detected at day 4 to day 6. […]
For histological examination of the human vasculature, paraffin sections (thickness=8-10 μm) were prepared from all plugs. Blood vessel formation was detected by staining the sections for human CD34 (NCL-END, Menarini, Berlin, Germany). Three sections per plug were analysed and three images were taken from each section at a magnification of 200× using the Eclipse TE2000-U microscope (Nikon, Kanagawa, Japan). The area analyzed per section (three images) was 0.44 mm^2. […]

With `CNCCOc1ccc2c(c1)OC1(c3ccc(Cl)cc3)C(c3ccccc3)CC(O)C21O` (centres unmarked) [IMD-026260, (1,3a,8b)-3a-(4-chlorophenyl)-6-(2-(methylamino)ethoxy)-3-phenyl-2,3,3a,8b-tetrahydro-1H-benzo[d]cyclopenta[b]furan-1,8b-diol], the IC50 in test [1] was determined as 8 nM; in test [2], 180 nM; in test [3] (Homo sapiens, HUVEC, VEGF-A 25 ng/ml, 24 h, read-out: IC50, VEGF-A induced sprouting of HUVEC spheroids), 28 nM. In test [3] (after hypoxic or VEGF induction, summary statement), the “inhibition of angiogenic sprouting in vitro (HUVEC sprouting)” value is reported as “potent inhibitors of angiogenic sprouting in vitro”. Besides, the “reduction of human vessel number compared to a vehicle control” value in test [4] was 42%.
